system: NRK; experiment: Compound was tested for its morphological reversion activity on srctsNRK cells; assay type: functional; conditions: Rattus norvegicus, read-out: MEC

Question: How did the minimal effective concentration turn out when `COCOC[C@@H](C[S+]([O-])CSC)NC(=O)/C=C/c1c(C)nc(O)nc1O` (some centres not stated) was run?
Answer: The minimal effective concentration was 60 µM.

Question: Which minimal effective concentration does the source give for `Cc1nc(O)nc(O)c1/C=C/C(=O)N[C@@H](CO)C[S+]([O-])C[S+](C)[O-]` (some centres not stated) here?
Answer: The minimal effective concentration was 530 µM.

Question: Which minimal effective concentration does the source give for `Cc1nc(O)nc(O)c1/C=C/C(=O)N[C@H](CO)C[S+]([O-])C[S+](C)[O-]` (some centres not stated) here?
Answer: Its minimal effective concentration is 530 µM.

Question: With `CCSC[S+]([O-])C[C@H](CO)NC(=O)/C=C/c1c(C)nc(O)nc1O` (some centres not stated) as the compound, how does the minimal effective concentration read?
Answer: Its minimal effective concentration is 20 µM.

Question: `CCC(C)SC[S+]([O-])C[C@H](CO)NC(=O)/C=C/c1c(C)nc(O)nc1O` (some centres not stated) was tested. Which minimal effective concentration did it give?
Answer: Its minimal effective concentration is 180 µM.

Question: `CSC[S+]([O-])C[C@H](CO)NC(=O)/C=C/c1c(C)[nH]c(=O)[nH]c1=O` (some centres not stated) was tested. Which minimal effective concentration did it give?
Answer: Its minimal effective concentration is 6.5 µM.

Question: `CCCCSC[S+]([O-])C[C@H](CO)NC(=O)/C=C/c1c(C)nc(O)nc1O` (some centres not stated) was tested. Which minimal effective concentration did it give?
Answer: The minimal effective concentration was 60 µM.

— ChEMBL document CHEMBL1130687, “Synthesis and morphological reversion activity on srctsNRK cells of pyrimidinylpropanamide antibiotics, sparsomycin, sparoxomycin A1, A2, and their analogues” (1998)
